Patent US20080254016A1, “Composition For Increasing Anti-Oxidation Activity In Blood” (Kaneka Corporation, priority 2005, published 2008)

Assays:
[1] = healthy person, intake of oxidized coenzyme Q10; cited from earlier work
[2] = Reduced coenzyme Q10 ratio in plasma after oral administration, 62-week-old SD rats (Example 2); assay type: in vivo
Description: (§1) The ratio of the reduced form to the total coenzyme Q10 is generally determined by a method comprising quantifying oxidized coenzyme Q10 and reduced coenzyme Q10 in a sample by high performance liquid chromatography (HPLC) using an UV detector and calculating the ratio from the volume ratio obtained, or a method comprising using an HPLC system incorporated with an electrochemical detector for calculating the ratio of oxidized coenzyme Q10 and reduced coenzyme Q10 from the peak area. The HPLC system incorporated with an electrochemical detector makes it possible to specifically determine oxidation-reduction substances and has high sensitivity, and thus is highly useful for determining trace amount of reduced coenzyme Q10 in the living body or samples. In the present invention, all the reduced coenzyme Q10 ratios are determined by the HPLC system incorporated with an electrochemical detector.
(§2) In these Examples, the ratio of reduced coenzyme Q10 to the total coenzyme Q10 was determined using the HPLC system incorporated with an electrochemical detector (product of Shiseido Co., Ltd.) and a reduction column (product of Shiseido Co., Ltd.).
(§3) 10 SD rats (62-week-old, males) were divided into 2 groups each consisted of 5 rats so that each group had the same average body weight value. To one group, a solution of reduced coenzyme Q10in soybean oil (containing about 1% of oxidized coenzyme Q10) was orally administered, and to the other group, a solution of oxidized coenzyme Q10 in soybean oil was orally administered, each at the dose of 100 mg/kg body weight in coenzyme Q10 equivalent. Then, the reduced coenzyme Q10 ratio in plasma was determined with time lapses. Blood was collected after 1, 2, 4 and 8 hours of oral administration, and centrifuged to obtain plasma. The concentration of reduced coenzyme Q10 and oxidized coenzyme Q10 in the obtained plasma was quantified using HPLC in order to determine the ratio of the reduced form.

[3] = Reduced coenzyme Q10 ratio in plasma after oral administration, 5-week-old SD rats (Reference Example 1); assay type: in vivo
Description: as §1, with “The HPLC system incorporated with an electrochemical detector makes it possible to specifically determine oxidation-reduction substances and has high sensitivity, and thus is highly useful for determining trace amount of reduced coenzyme Q10 in the living body or samples.” left out
as §2
10 SD rats (5-week-old, males) were divided into 2 groups each consisted of 5 rats so that each group had the same average body weight value. […] Then, the reduced coenzyme Q10 ratio in plasma was determined with time lapses. […] The concentration of reduced coenzyme Q10 and oxidized coenzyme Q10 in the obtained plasma was quantified using HPLC in order to determine the reduced coenzyme Q10 ratio.

[4] = Reduced coenzyme Q10 ratio in plasma after oral administration, 54-week-old SD rats (Example 1); assay type: in vivo
Description: as §1, §2
as §3, with “(54-week-old,” for “(62-week-old,”, “Q10 in” for “Q10in”

[5] = Reduced coenzyme Q10 ratio in plasma of healthy aged people fed soft capsules (Example 3); assay type: in vivo, human; conditions: healthy aged people 64 to 77 years old, two soft capsules (100 mg of coenzyme Q10), since 2 hours after administration
Description: as §1, with “The HPLC system incorporated with an electrochemical detector makes it possible to specifically determine oxidation-reduction substances and has high sensitivity, and thus is highly useful for determining trace amount of reduced coenzyme Q10 in the living body or samples.” left out
as §2
Two soft capsules obtained in Preparation Example 5 and Comparative Preparation Example 1 (containing 100 mg of coenzyme Q10) were fed to two groups of healthy aged people (20 male and female individuals in each group, age: 64 to 77 years old), and the effect on the reduced coenzyme Q10 ratio in plasma was evaluated.

[6] = male, SD, rat, in vivo, po, 100 mg/kg, 1 h
[7] = male, SD, rat, in vivo, po, 100 mg/kg, 8 h

Compound | amount of reduced coenzyme Q10 in plasma [1] | ratio of reduced coenzyme Q10 to oxidized coenzyme Q10 in plasma [1] | ratio of the reduced form of coenzyme Q10 in plasma [2, 6] | ratio of the reduced form of coenzyme Q10 in plasma [2, 7] | difference in the reduced coenzyme Q10 ratio in plasma between administration of reduced and oxidized coenzyme Q10 ([3]; rat, in vivo, po, 100 mg/kg) | ratio of the reduced form of coenzyme Q10 in plasma [4, 6] | ratio of the reduced form of coenzyme Q10 in plasma [4, 7] | ratio of the reduced form of coenzyme Q10 in plasma ([2]; 62-week-old male SD rats, 100 mg/kg oral in soybean oil, over 1-8 hours) | difference in the reduced coenzyme Q10 ratio in plasma between administration of reduced and oxidized coenzyme Q10 ([3]; 5-week-old male SD rats, 100 mg/kg oral in soybean oil, after 2 hours or later of administration) | ratio of the reduced form of coenzyme Q10 in plasma ([4]; 54-week-old male SD rats, 100 mg/kg oral in soybean oil, over 1-8 hours) | ratio of reduced coenzyme Q10 to the total coenzyme Q10 in plasma, time course [5]
COC1=C(OC)C(=O)C(C/C=C(\C)CCC=C(C)CCC=C(C)CCC=C(C)CCC=C(C)CCC=C(C)CCC=C(C)CCC=C(C)CCC=C(C)CCC=C(C)C)=C(C)C1=O [oxidized coenzyme Q10] | increased | unchanged | about 74% | about 78% | almost no difference | about 76% | about 87% | – | – | – | –
COc1c(O)c(C)c(C/C=C(\C)CC/C=C(\C)CC/C=C(\C)CC/C=C(\C)CC/C=C(\C)CC/C=C(\C)CC/C=C(\C)CC/C=C(\C)CC/C=C(\C)CCC=C(C)C)c(O)c1OC [reduced coenzyme Q10] | – | – | – | – | – | – | – | around 90% | almost no difference | around 90% | increased with the lapse of time
